Assay results from patent US20080268535A1, “Method for Inducing the Differentiation of Human Myelogenous Leukemia Cells Into Megakarocytes or Thrombocytes” (EWHA University - Industry Collaboration Foundation, priority 2005, published 2008).

Legend:
Assay type in all cases: cell-based, human
[1] = tested on: K562 cells; assay: Growth curve of K562 cells (trypan blue viable cell count); settings: 40 μg/ml, counted every day for 5 days
Procedure: To examine the effect of the compound (R)-NALPCE on cell growth, K562 cells was monitored for growth in the presence thereof. The cells were aliquoted at a density of 1×10^5 cells per well in 6-well plates and treated with 40 μg/ml. After staining with trypan blue, viable cells were counted every day for 5 days.

[2] = tested on: HEL cells; assay: Growth curve of HEL cells (trypan blue viable cell count); settings: 5 μg/ml, counted every day for 5 days
Procedure: To examine the effect of the compound (R)-NALPCE on cell growth, the HEL cells was monitored for growth curve in the presence thereof. The cells were aliquoted at a density of 3×10^5 cells per well in 6-well plates and treated with 5 μg/ml of (R)-NALPCE. After staining with trypan blue, viable cells were counted every day for 5 days.

[3] = tested on: HEL cells; assay: Differentiation inductivity, lineage receptor expression by FACS, HEL cells; settings: 5 μg/ml (R)-NALPCE 5 days or 10 nM PMA 3 days
Procedure: HEL cells were aliquoted at a density of 3×10^5 cells per well in 6-well plates and treated separately with 5 μg/ml of (R)-NALPCE and 10 nM of 12-phorbol myristate-13-acetate (PMA) (Calbiochem.), followed by incubation for 5 and 3 days, respectively. After centrifugation (1,000 rpm, 10 min), cell pellets thus obtained were washed three times with 0.01% bovine serum albumin (BSA) in PBS and incubated with 10 μl of anti-CD61-fluorescein-5-isothiocyanate (FITC) (Dako Chemicals, Carpenteria, Calif.), 20 μl of anti-CD16-Cy-Chrome (Cy) (BD Pharmingen), 10 μl of anti-glycophorin ACD235a-phycoerythrin (PE) (Dako Chemicals, Carpenteria, Calif.), and 20 μl of anti-CD14-allophycocyanin (APC) (BD Pharmingen) in 200 μl of 0.01% bovine serum albumin (BSA)-PBS at 4° C. for 50 min with spinning so as to achieve homogenous fluorescent staining over the cells. After centrifugation (1,000 rpm, 10 min), the cell pellets thus obtained were washed three times with 0.01% bovine serum albumin (BSA) in PBS. Fluorescence was analyzed on a fluorescence-activated cell sorter (FACS) (Aria) using a Cellquest program.

[4] = tested on: K562 cells; assay: Megakaryocyte differentiation, CD41/CD61 expression over time by FACS, K562 cells; settings: 40 μg/ml, 4 days
Procedure: K562 cells were aliquoted at a density of 2×10^5 cells per well in 6-well plates and treated with 40 μg/ml of (R)-NALPCE, followed by incubation for 4 days. After centrifugation (1,000 rpm, 5 min), the cell pellets thus obtained were washed three times with 0.01% bovine serum albumin (BSA) in PBS. Incubation with 10 μl of anti-CD41-fluorescein-5-isothiocyanate (FITC) (Dako Chemicals, Carpenteria, Calif.) or 20 μl of anti-CD61-phycoerythrin (PE) (BD Pharmingen) in 200 μl of 0.01% bovine serum albumin (BSA)-PBS was conducted at 4° C. for 50 min with spinning to realize homogeneous fluorescent staining. Following centrifugation (1,000 rpm, 10 min), the cell pellets thus obtained were rinsed three times with 0.01% bovine serum albumin (BSA) in PBS. Fluorescence was analyzed on a fluorescence-activated cell sorter (FACS) (Aria) using a Cellquest program.

[5] = tested on: K562 cells; assay: Active form of platelet-like cells secreted from differentiated K562 cells, fluorescence microscopy
Procedure: OP9 cells were aliquoted at a density of 1×10^5 cells per well in 6-well plates and incubated for 24 hrs. After the OP9 cells were uniformly attached onto the bottom of the plates, K562 cells were layered at a density of 1×10^5 cells over the OP9 cells in the 6-well plates. The cells were treated with 40 μg/ml of (R)-NALPCE before incubation in a day-dependent manner for 5 days. […] The platelet-like cells were separated from the megakaryocytes by centrifuging the differentiated K562 cells at 500 rpm for 20 min and further centrifuging the supernatant at 3,000 rpm for 10 min.
A morphological comparison was made between the platelet-like cells and the pre-existing blood platelets using fibrinogen-coated slides. General slides (POLY-PREP, Sigma, U.S.A.) were coated with 20 μg/ml of fibrinogen in PBS ((R)-NALPCE-treated group) or with 1% bovine serum albumin (control) in PBS, and then incubated at 37° C. for 2 hrs in a humid atmosphere. A suspension of the separated platelet-like cells and the pre-existing blood platelets in PBS was placed on the slides. […] A drop of a mounting solution was spotted on the slides, which were then covered with a coverslip before observation under a fluorescence microscope. […] The cells thus stained were very gently washed three times with PBS and observed using a fluorescence microscope (Axiovision, Zeiss) with 400× magnification.

[6] = tested on: K562 cells; assay: Cell differentiation of K562 cells on OP9 cells, optical microscopy
Procedure: A stromal line of OP9 cells derived from […] was aliquoted at a density of 1×10^5 cells in 6-well plates and incubated for 24 hrs. After the OP9 cells were uniformly attached onto the bottom of the plates, K562 cells were layered at a density of 1×10^5 cells on the OP9 cells in 6-well plates. The cells were treated with 40 μg/ml of (R)-NALPCE, or 500 pmole, 10 nmole or 50 nmole of PMA before incubation for 5 days. They were observed under an optical microscope with 200× magnification.

CCCCCCCCCCCCCCCCCC(=O)NC(COP(=O)([O-])OCC[N+](C)(C)C)C(=O)OC [(R)-NALPCE, N-steroyl-O-phosphocholine-D-serine methyl ester]
cell growth curve (viable cells) [1]: relatively low cell growth curve | cell growth curve (viable cells) [2]: relatively low cell growth curve | expression of CD61, CD235a, CD16 and CD14 receptors [3]: CD61 and CD16 were specifically expressed | CD41 and CD61 expression rate [4]: increase in expression rate in a time-dependent manner | appearance of anucleate platelet-like cells ([5]; K562 cells on OP9 cells, 40 μg/ml, Day 5 after the treatment): a large number of anucleate platelet-like cells appeared | activation of released anucleate cells ([5]; fibrinogen-coated slides, activators ADP, epinephrine, AYPGFK, MnCl2): activated in the same manner as the pre-existing blood platelets | production or secretion of thrombocytes by differentiated megakaryocytes ([6]; (R)-NALPCE with OP9 cells, PMA treatment): released a lot of thrombocytes | cell morphology (optical microscope) ([6]; K562 cells on OP9 cells, 40 μg/ml, 5 days): increased in size in a time-dependent manner, and anucleate cells such as thrombocytes were observed
